Results as given in publication PMC8162404, “Proteomimetic surface fragments distinguish targets by function” (Chemical Science, 2020).
Where two headings read alike, the source gives them in different places.

Tests used:
Assay in all cases: Pull-down assay with immobilized protein and LSM libraries
S100B = biological target: T1, S100B (Homo sapiens, UniProt P04271); format: binding; details: 1:1 binding assumed, read-out: Surface mapping KD (apparent)
T1 construct: made in house; host or cells: Escherichia coli BL21(DE3)
T1 sequence (P04271 1-92): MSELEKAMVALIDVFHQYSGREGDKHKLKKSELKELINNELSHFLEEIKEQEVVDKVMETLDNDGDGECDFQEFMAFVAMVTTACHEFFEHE
Procedure, shortened: (§1)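 Buffers were HEPES pH 7.4 with 150 mM NaCl, plus 1 mM TCEP and 1 mM CaCl2 (50 mM HEPES) for S100A4 and S100B, 1 mM TCEP for Gal-1, and no additive for RecQ-WH. Immobilized protein at 64 µM was equilibrated 30 min with the LSM sublibrary, and unbound probes were measured by LC-MS.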

Gal-1 = biological target: T2, Gal-1 (Homo sapiens, UniProt P09382); format: binding; details: H12 library; 1:1 binding assumed; read-out: Surface mapping KD (apparent)
T2 construct: made in house; host or cells: E. coli BL21(DE3)
T2 sequence (P09382 whole entry): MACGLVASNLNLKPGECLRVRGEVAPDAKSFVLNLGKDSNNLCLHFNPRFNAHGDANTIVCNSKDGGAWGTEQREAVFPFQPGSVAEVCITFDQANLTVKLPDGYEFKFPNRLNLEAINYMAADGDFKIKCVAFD
Procedure, shortened: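 His-tagged protein immobilized on Co-NTA resin (64 µM) in 20 mM HEPES pH 7.4, 150 mM NaCl, equilibrated 30 min at room temperature with foldamer LSM sublibraries at equimolar total concentration. Unbound fractions quantified by HPLC-MS versus protein-free resin control; apparent KD assumes 1:1 binding.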

CaM = biological target: T3, CaM (Bos taurus, UniProt P62157); format: binding, bovine; details: 1:2 stoichiometry assumed, read-out: Surface mapping KD (apparent)
T3 construct: made in house; host or cells: E. coli BL21 (DE3)
Procedure, shortened: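 His-tagged protein immobilized on Co-NTA resin, equilibrated 30 min at room temperature with LSM sublibraries (64 members, […]), equimolar protein to total probe. CaM buffer: 20 mM HEPES pH 7.4, 150 mM NaCl, 5 mM CaCl2. Bound fractions from HPLC-MS loss of unbound probe versus protein-free resin control; Kd derived.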

RecQ-WH = biological target: T4, RecQ-WH (Escherichia coli, UniProt P15043); design: species or system E. coli; details: 1:1 binding assumed, read-out: Surface mapping KD (apparent)
T4 construct: coding for residues 408– 523 of E. coli RecQ; made in house; host or cells: E. coli BL21(DE3)
T4 sequence (P15043 408-523): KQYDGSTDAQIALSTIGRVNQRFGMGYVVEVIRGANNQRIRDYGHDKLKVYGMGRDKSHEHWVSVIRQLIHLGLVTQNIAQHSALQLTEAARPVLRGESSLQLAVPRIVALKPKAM
Method: Pull-down assays with immobilized test proteins and foldameric LSM libraries were carried out. Proteins were equilibrated with LSM probes, and equilibrium bound fractions (FB) were determined from the unbound fractions measured by HPLC-MS methods. Hits were corrected with background binding of the resin. The protocol allowed all binding events to equilibrate irrespective of affinity, specificity, and binding kinetics. This was essential to judge overall druggability and promiscuity. Importantly, the concentration of protein and the total concentration of foldameric LSMs were equimolar, which minimized competition between the probes. This experimental setup approximated independent binding of individual library members. Results were visualized as heat maps of dissociation constants (Fig. 3).
Pull-down assay and data analysis
Pull-down assay. LSM sublibraries were screened separately as previously described.(2) Experiments were performed in the following buffers: (i) 20 mM pH 7.4 HEPES, 150 mM NaCl, 5 mM CaCl2 for CaM; (ii) 50 mM pH 7.4 HEPES, 150 mM NaCl, 1 mM TCEP, 1 mM CaCl2 for S100 proteins; (iii) 20 mM pH 7.4 HEPES, 150 mM NaCl, 1 mM TCEP for Gal-1 and (iv) 20 mM pH 7.4 HEPES, 150 mM NaCl for RecQ-WH. Assays were performed in paper filter spin cups (Thermo Scientific) with sample volumes of 100 µl. Hexahistidine-tagged proteins were immobilized on previously washed Co-NTA resin (TALON, Takara Bio USA, Inc., Mountain View, CA) in 64 µM final concentration. LSM sublibrary was added, in which each of the 64 library members were used at a concentration of 1 µM. Samples were incubated at room temperature for 30 min with shaking at 100 rpm. Then, samples were centrifuged at 1000 rpm for 2 min and washed with 100 µl pull-down buffer to remove unbound compounds.
The control experiments were performed using the same compounds and the resin but without the immobilized protein. In case of competitive assays, competitor peptides were added to LSM sublibrary samples in 200 µM final concentration. In the case of Gal-1, lactose (competitor) was used in a concentration of 10 mM. Experiments were performed at least twice. Mean […]
LC-MS methods and parameters. HPLC/ESI-MS analysis was used to characterize the samples from the pull-down assay. LC-MS analysis was performed with a Thermo Scientific Dionex UltiMate 3000 HPLC system interfaced to an LTQ ion trap mass spectrometer (Thermo Electron Corp., San Jose, CA, USA). Samples were injected onto an Aeris Widepore XB-C18 (250 x 4.6 mm) analytical HPLC column using gradient elution 5-80 % solution B during 25 minutes. For pull-down samples, eluent composition was 0.1% acetic acid in distilled water (Solution A) and 0.1% acetic acid in acetonitrile (solution B). Mass spectra were acquired in full scan mode from 200 to 2000 m/z range. For overlapping peaks, selective reaction monitoring (SRM) was […]
MS data analysis. Thermo Xcalibur 2.2 software was used for peak identification and integration. The majority of the foldameric fragments could be resolved independently via HPLC-MS/MS measurements based on molecular weight, MS fragmentation pattern and retention time. Peaks of some foldamers with β3-hIle or β3-hLeu in position R2 could not be resolved, these were integrated and averaged. In the processing method, each sample component was associated to a chromatographic peak based on previously identified mass (m/z) and retention time (ref (2) and Table S7-10). Using ICIS peak detection algorithm, the general detection and integration criteria were: smoothing points: 5, baseline window: 80, area noise factor: 5, peak noise factor: 10. Using these processing setups, all raw data files were reprocessed together and analyzed. Errors in peak identification during the automatic processing were corrected manually.
Calculation of the discussed parameters
1. Bound fractions (FB.) were calculated from the HPLC-MS intensity loss of the LSM probes compared to the control where no protein was immobilized to the resin: […]

S100A4 = biological target: T5, S100A4 (Homo sapiens, UniProt P26447); format: binding; details: 1:1 binding assumed, read-out: Surface mapping KD (apparent)
T5 construct: made in house; host or cells: Escherichia coli BL21(DE3)
T5 sequence (P26447 whole entry): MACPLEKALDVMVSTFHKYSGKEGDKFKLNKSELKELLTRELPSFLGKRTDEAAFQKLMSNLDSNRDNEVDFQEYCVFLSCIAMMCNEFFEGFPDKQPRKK
Procedure, shortened: as §1

Row | Compound | Kd (S100B; H12 library) [µM] | Kd (Gal-1) [µM] | Kd (RecQ-WH; H12 library) [µM] | Kd (RecQ-WH; H14 library) [µM] | Kd (CaM; H14 library) [µM] | further results
1 | NCCCC[C@@H](CC(=O)N[C@H]1CCC[C@@H]1C(=O)N[C@H]1CCC[C@@H]1C(N)=O)NC(=O)[C@H]1CCC[C@@H]1NC(=O)[C@H]1CCC[C@@H]1NC(=O)C[C@H](Cc1ccccc1)NC(=O)[C@H]1CCC[C@@H]1NC(=O)[C@H]1CCC[C@@H]1N [H12 FK] | 37 | 246 | 337 |  |  | Kd (CaM; H12 library): 448 µM
2 | N=C(N)NCCC[C@@H](CC(=O)N[C@H]1CCC[C@@H]1C(=O)N[C@H]1CCC[C@@H]1C(N)=O)NC(=O)[C@H]1CCC[C@@H]1NC(=O)[C@H]1CCC[C@@H]1NC(=O)C[C@H](Cc1ccccc1)NC(=O)[C@H]1CCC[C@@H]1NC(=O)[C@H]1CCC[C@@H]1N [H12 FR] | 28 | 141 | 388 |  |  | Kd (CaM; H12 library): 125 µM
3 | CC(C)C[C@@H](CC(=O)N[C@H]1CCC[C@@H]1C(=O)N[C@H]1CCC[C@@H]1C(=O)N[C@@H](CCCCN)CC(=O)N[C@H]1CCC[C@@H]1C(=O)N[C@H]1CCC[C@@H]1C(N)=O)NC(=O)[C@H]1CCC[C@@H]1NC(=O)[C@H]1CCC[C@@H]1N [H12 LK] | 54 |  | 434 |  |  | 
4 | CSCC[C@@H](CC(=O)N[C@H]1CCC[C@@H]1C(=O)N[C@H]1CCC[C@@H]1C(=O)N[C@@H](CCCNC(=N)N)CC(=O)N[C@H]1CCC[C@@H]1C(=O)N[C@H]1CCC[C@@H]1C(N)=O)NC(=O)[C@H]1CCC[C@@H]1NC(=O)[C@H]1CCC[C@@H]1N [H12 MR] | 59 | 186 | 435 |  |  | 
5 | NCCCC[C@@H](CC(=O)N[C@H]1CCC[C@@H]1C(=O)N[C@H]1CCC[C@@H]1C(N)=O)NC(=O)[C@H]1CCC[C@@H]1NC(=O)[C@H]1CCC[C@@H]1NC(=O)C[C@H](Cc1c[nH]c2ccccc12)NC(=O)[C@H]1CCC[C@@H]1NC(=O)[C@H]1CCC[C@@H]1N [H12 WK] | 26 | 266 | 431 |  |  | 
6 | N=C(N)NCCC[C@@H](CC(=O)N[C@H]1CCC[C@@H]1C(=O)N[C@H]1CCC[C@@H]1C(N)=O)NC(=O)[C@H]1CCC[C@@H]1NC(=O)[C@H]1CCC[C@@H]1NC(=O)C[C@H](Cc1c[nH]c2ccccc12)NC(=O)[C@H]1CCC[C@@H]1NC(=O)[C@H]1CCC[C@@H]1N [H12 WR] | 15 |  | 206 |  |  | Kd (S100A4; H12 library): 326 µM; Kd (CaM; H12 library): 226 µM
7 | NC(=O)[C@H]1CCC[C@@H]1NC(=O)[C@H]1CCC[C@@H]1NC(=O)C[C@H](CO)NC(=O)[C@H]1CCC[C@@H]1NC(=O)[C@H]1CCC[C@@H]1NC(=O)C[C@H](Cc1c[nH]c2ccccc12)NC(=O)[C@H]1CCC[C@@H]1NC(=O)[C@H]1CCC[C@@H]1N [H12 WS] | 54 | 413 | 420 |  |  | 
8 | NCCCC[C@@H](CC(=O)N[C@H]1CCC[C@@H]1C(=O)N[C@H]1CCC[C@@H]1C(N)=O)NC(=O)[C@H]1CCC[C@@H]1NC(=O)[C@H]1CCC[C@@H]1NC(=O)C[C@H](Cc1ccc(O)cc1)NC(=O)[C@H]1CCC[C@@H]1NC(=O)[C@H]1CCC[C@@H]1N [H12 YK] | 86 | 371 | 280 |  |  | Kd (CaM; H12 library): 42 µM
9 | CC[C@H](C)[C@@H](CC(=O)N[C@H]1CCCC[C@@H]1C(N)=O)NC(=O)[C@H]1CCCC[C@@H]1NC(=O)[C@H]1CCCC[C@@H]1NC(=O)C[C@H](CCC(=O)O)NC(=O)[C@H]1CCCC[C@@H]1N [H14 EI] |  |  |  | 444 |  | 
10 | CC(C)C[C@@H](CC(=O)N[C@H]1CCCC[C@@H]1C(N)=O)NC(=O)[C@H]1CCCC[C@@H]1NC(=O)[C@H]1CCCC[C@@H]1NC(=O)C[C@H](CCC(=O)O)NC(=O)[C@H]1CCCC[C@@H]1N [H14 EL] |  |  |  | 444 |  | 
11 | NC(=O)[C@H]1CCCC[C@@H]1NC(=O)C[C@H](CC(=O)O)NC(=O)[C@H]1CCCC[C@@H]1NC(=O)[C@H]1CCCC[C@@H]1NC(=O)C[C@H](Cc1ccccc1)NC(=O)[C@H]1CCCC[C@@H]1N [H14 FD] |  |  |  | 193 | 489 | 
12 | NC(=O)[C@H]1CCCC[C@@H]1NC(=O)C[C@H](CCC(=O)O)NC(=O)[C@H]1CCCC[C@@H]1NC(=O)[C@H]1CCCC[C@@H]1NC(=O)C[C@H](Cc1ccccc1)NC(=O)[C@H]1CCCC[C@@H]1N [H14 FE] |  |  |  | 328 | 475 | 
13 | NCCCC[C@@H](CC(=O)N[C@H]1CCCC[C@@H]1C(=O)N[C@H]1CCCC[C@@H]1C(=O)N[C@H](CC(=O)N[C@H]1CCCC[C@@H]1C(N)=O)Cc1ccc(O)cc1)NC(=O)[C@H]1CCCC[C@@H]1N [H14 KY] |  |  |  | 407 | 36 | Kd (S100B; H14 library): 63 µM
14 | N=C(N)NCCC[C@@H](CC(=O)N[C@H]1CCCC[C@@H]1C(=O)N[C@H]1CCCC[C@@H]1C(=O)N[C@@H](CC(=O)O)CC(=O)N[C@H]1CCCC[C@@H]1C(N)=O)NC(=O)[C@H]1CCCC[C@@H]1N [H14 RD] |  |  |  | 427 |  | 
15 | CC[C@H](C)[C@@H](CC(=O)N[C@H]1CCCC[C@@H]1C(N)=O)NC(=O)[C@H]1CCCC[C@@H]1NC(=O)[C@H]1CCCC[C@@H]1NC(=O)C[C@H](CCCNC(=N)N)NC(=O)[C@H]1CCCC[C@@H]1N [H14 RI] |  |  |  | 237 | 10 | Kd (S100B; H14 library): 31 µM; Kd (S100A4; H14 library): 51 µM
16 | CC(C)C[C@@H](CC(=O)N[C@H]1CCCC[C@@H]1C(N)=O)NC(=O)[C@H]1CCCC[C@@H]1NC(=O)[C@H]1CCCC[C@@H]1NC(=O)C[C@H](CCCNC(=N)N)NC(=O)[C@H]1CCCC[C@@H]1N [H14 RL] |  |  |  | 237 | 10 | Kd (S100B; H14 library): 31 µM; Kd (S100A4; H14 library): 51 µM
17 | N=C(N)NCCC[C@@H](CC(=O)N[C@H]1CCCC[C@@H]1C(=O)N[C@H]1CCCC[C@@H]1C(=O)N[C@@H](CC(N)=O)CC(=O)N[C@H]1CCCC[C@@H]1C(N)=O)NC(=O)[C@H]1CCCC[C@@H]1N [H14 RN] |  |  |  | 439 | 185 | Kd (S100B; H14 library): 212 µM
18 | N=C(N)NCCC[C@@H](CC(=O)N[C@H]1CCCC[C@@H]1C(=O)N[C@H]1CCCC[C@@H]1C(=O)N[C@@H](CO)CC(=O)N[C@H]1CCCC[C@@H]1C(N)=O)NC(=O)[C@H]1CCCC[C@@H]1N [H14 RS] |  |  |  | 403 | 155 | Kd (S100B; H14 library): 413 µM
19 | NC(=O)[C@H]1CCCC[C@@H]1NC(=O)C[C@H](CCC(=O)O)NC(=O)[C@H]1CCCC[C@@H]1NC(=O)[C@H]1CCCC[C@@H]1NC(=O)C[C@H](Cc1c[nH]c2ccccc12)NC(=O)[C@H]1CCCC[C@@H]1N [H14 WE] |  |  |  | 137 | 191 | Kd (S100A4; H14 library): 428 µM
